The source of these data is patent US20250345330A1 (Veradermics, Incorporated, priority 2024, published 2025).

The test system of data set [1] is rats. Conditions: two-year, oral administration; cited from earlier work.
The conditions of data set [2]: primarily conjugation with glucuronic acid; cited from earlier work.
The conditions of data set [3]: cited from earlier work; for Cmax: tablets, healthy subjects.
The conditions of data set [4]: cited from earlier work.
The test system of data set [5] is person with androgenetic alopecia. Put plainly: Case studies: oral minoxidil in male patients with androgenetic alopecia (blood pressure, heart rate, hair growth). To be noted: 1.25 mg QID.
For data set [6], the system named is male adults with AGA. To be noted: 5 mg oral at bedtime; 24 weeks; cited from earlier work.
Data set [7] relates to rats. To be noted: cited from earlier work.
Data set [8] has as its system Chinese hamster cells. Conditions: long exposure times; cited from earlier work.
The conditions of data set [9]: initially; chronic therapy; cited from earlier work.

Where two headings read alike, the source gives them in different places.

As a reminder, the Cmax is the highest concentration seen after dosing.

Take `Nc1cc(N2CCCCC2)nc(N)[n+]1[O-]` [Minoxidil, minoxidil]: in data set [1], the Carcinogenicity findings entry was “no positive findings”. In addition, the “Fraction of oral minoxidil metabolized” value in data set [2] is “About 90%”. Further, the “Dose dependence of PK” value in [3] (2.5 mg, 5 mg, or 10 mg oral, healthy volunteers) is recorded as “dose-independent PK”. Further, the results for the “Duration of plasma concentrations above 20 ng/mL” value in data set [3] (5 mg dose level) and in data set [3] (10 mg dose level) were “around 1 h” and “around 2 h”, respectively. The Cmax was 16.8 ng/mL in [3] (2.5 mg), 37.2 ng/mL in [3] (5 mg) and 74.7 ng/mL in [3] (10 mg). Further, in data set [4] (human, in vivo), the “Radioactivity found in feces” value is 3%. The “Radioactivity recovered from urine, in total” value in [4] (human, in vivo) is recorded as 97%. In addition, the “Radiolabeled minoxidil and metabolites recovered from urine” value in data set [4] (within 24 h after oral administration) is “Over 80%”. Moreover, the Adverse events result in data set [5] is “No unwanted hair growth or other adverse events”. Moreover, the Cardiovascular outcomes in data set [6] is “No adverse cardiovascular outcomes were observed”. Further, in [7], the Fetal resorption result was “not seen in rats”. Besides, the Cytogenetic assay result in data set [8] is on record as “equivocal result”. For the same molecule, in data set [9], the “Temporary decrease in hematocrit, hemoglobin, and erythrocyte count (hemodilution)” value was “approximately 7%”.
